Literature values in patent US9717704B2, “Method of treating, delaying and/or preventing Alzheimer's Disease” (Smartfish AS, priority 2013, dated 2017).

What was measured:
[1] = test system: PBMCs / macrophages of AD patients; details: in vitro (Mizwicki et al. 2013)
amyloid-beta = details: cell lines (Marambaud, Zhao et al. 2005)

Row | Compound | Abeta phagocytosis [1] | deregulation of inflammatory genes [1] | proteasome degradation of amyloid-beta (amyloid-beta)
1 | CC/C=C\C[C@H](O)/C=C/C=C\C=C\C=C\[C@@H](O)[C@@H](O)C/C=C\CCC(=O)O [resolvin D1] | repair | repair the deregulation of these genes | –
2 | Oc1ccc(/C=C/c2cc(O)cc(O)c2)cc1 [Resveratrol, 3,5,4′-trihydroxy-trans-stilbene] | – | – | promote proteasome degradation of amyloid-beta
3 | C=C1/C(=C\C=C2/CCC[C@]3(C)[C@@H]([C@H](C)CCCC(C)(C)O)CC[C@@H]23)C[C@@H](O)C[C@@H]1O [1,25dihydroxyvitamin D3] | repair | repair the deregulation of these genes | –
